In this assay the target is human APJ receptor (Homo sapiens (Human), UniProt P35414). Description: Intracellular cAMP accumulation assay (APJ hcAMP, HTRF). It is filed as cell-based. Particulars: HEK293 cells stably expressing human APJ receptor; inhibition of forskolin-mediated cAMP production; read-out: hAPJ cAMP EC50 Potency range. A digest of the protocol: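 cAMP inhibition was quantified by HTRF against a cAMP standard curve, with EC50 fitted to a variable-slope sigmoidal curve. Compounds acted on 5,000 APJ-stable HEK293 cells for 30 minutes at room temperature alongside 2 μM forskolin and […] IBMX. Detection reagents were incubated 60 min.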
Sequence of human APJ receptor (P35414 whole entry): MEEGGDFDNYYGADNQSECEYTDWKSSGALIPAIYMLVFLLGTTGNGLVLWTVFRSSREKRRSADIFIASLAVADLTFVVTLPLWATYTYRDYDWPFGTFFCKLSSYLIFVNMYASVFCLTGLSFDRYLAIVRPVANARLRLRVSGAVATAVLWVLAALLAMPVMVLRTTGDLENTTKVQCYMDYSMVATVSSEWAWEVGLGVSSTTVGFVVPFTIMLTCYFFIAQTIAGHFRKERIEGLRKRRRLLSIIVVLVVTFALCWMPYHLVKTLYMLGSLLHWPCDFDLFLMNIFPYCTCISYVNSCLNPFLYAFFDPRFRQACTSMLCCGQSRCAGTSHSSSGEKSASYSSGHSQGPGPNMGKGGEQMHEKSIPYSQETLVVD
Background: cAMP levels reflect the balance of adenylyl cyclase and phosphodiesterase activity.

One may read the EC50 as the midpoint of the concentration-response curve.

As for `CCCCc1nc(O)c(-c2nnc(Cc3nnn(C)n3)o2)c(O)c1-c1c(OC)cccc1OC` [Example 63, 6-butyl-5-(2,6-dimethoxyphenyl)-3-{5-[(2-methyl-2H-1,2,3,4-tetrazol-5-yl)methyl]-1,3,4-oxadiazol-2-yl}pyridine-2,4-diol], the EC50 fell in the range of 0.01 to 10 nM.

For the compound `CCCCc1nc(O)c(-c2nnc(C(C)(C)Cc3ccccc3)o2)c(O)c1-c1c(OC)cccc1OC` [Example 64, 6-butyl-5-(2,6-dimethoxyphenyl)-3-[5-(2-methyl-1-phenylpropan-2-yl)-1,3,4-oxadiazol-2-yl]pyridine-2,4-diol], the EC50 is 0.01 to 10 nM.

`CCCCc1nc(O)c(-c2nnc(COc3ccc(C(F)(F)F)cc3)o2)c(O)c1-c1c(OC)cccc1OC` [Example 65, 6-butyl-5-(2,6-dimethoxyphenyl)-3-{5-[4-(trifluoromethyl)phenoxymethyl]-1,3,4-oxadiazol-2-yl}pyridine-2,4-diol]: the 50% effective concentration (EC50) is 10 to 100 nM.

Regarding `CCCCc1nc(O)c(-c2nnc(Cc3nnc(-c4ccccc4)[nH]3)o2)c(O)c1-c1c(OC)cccc1OC` [Example 66, 6-butyl-5-(2,6-dimethoxyphenyl)-3-{5-[(5-phenyl-4H-1,2,4-triazol-3-yl)methyl]-1,3,4-oxadiazol-2-yl}pyridine-2,4-diol], the concentration for a half-maximal effect (EC50) lay in the range of 0.01 to 10 nM.

In the case of `CCCCc1nc(O)c(-c2nnc(CC3CCCCC3)o2)c(O)c1-c1c(OC)cccc1OC` [Example 67, 6-butyl-3-[5-(cyclohexylmethyl)-1,3,4-oxadiazol-2-yl]-5-(2,6-dimethoxyphenyl) pyridine-2,4-diol], the EC50 fell in the range of 0.01 to 10 nM.

Take `CCCCc1nc(O)c(-c2nnc(CCc3ccc(Cl)cc3)o2)c(O)c1-c1c(OC)cccc1OC` [Example 68, 6-butyl-3-{5-[2-(4-chlorophenyl)ethyl]-1,3,4-oxadiazol-2-yl}-5-(2,6-dimethoxyphenyl) pyridine-2,4-diol]: the EC50 lay within 0.01 to 10 nM.

As for `CCCCc1nc(O)c(-c2nnc(CC3CCOCC3)o2)c(O)c1-c1c(OC)cccc1OC` [Example 69, 6-butyl-5-(2,6-dimethoxyphenyl)-3-[5-(oxan-4-ylmethyl)-1,3,4-oxadiazol-2-yl]pyridine-2,4-diol], the 50% effective concentration (EC50) was 10 to 100 nM.

In the case of `CCCCc1nc(O)c(-c2nnc(Cc3ccc(F)c(Cl)c3)o2)c(O)c1-c1c(OC)cccc1OC` [Example 70, 6-butyl-3-{5-[(3-chloro-4-fluorophenyl)methyl]-1,3,4-oxadiazol-2-yl}-5-(2,6-dimethoxyphenyl) pyridine-2,4-diol], the EC50 is 0.01 to 10 nM.

For `CCCCc1nc(O)c(-c2nnc(Cc3ccc(Cl)c(F)c3)o2)c(O)c1-c1c(OC)cccc1OC` [Example 71, 6-butyl-3-{5-[(4-chloro-3-fluorophenyl)methyl]-1,3,4-oxadiazol-2-yl}-5-(2,6-dimethoxyphenyl) pyridine-2,4-diol], the concentration for a half-maximal effect (EC50) fell in the range of 0.01 to 10 nM.

On to `CCCCc1nc(O)c(-c2nnc(CCc3nccs3)o2)c(O)c1-c1c(OC)cccc1OC` [Example 72, 6-butyl-5-(2,6-dimethoxyphenyl)-3-{5-[2-(1,3-thiazol-2-yl)ethyl]-1,3,4-oxadiazol-2-yl}pyridine-2,4-diol], for which the EC50 was 0.01 to 10 nM.

With `CCCCc1nc(O)c(-c2nnc(Cc3cccc(C(F)(F)F)c3)o2)c(O)c1-c1c(OC)cccc1OC` [Example 73, 6-butyl-5-(2,6-dimethoxyphenyl)-3-(5-{[3-(trifluoromethyl)phenyl]methyl}-1,3,4-oxadiazol-2-yl)pyridine-2,4-diol], the concentration giving a half-maximal response (EC50) is 10 to 100 nM.

Regarding `CCCCc1nc(O)c(-c2nnc(CCc3ccc(F)c(F)c3)o2)c(O)c1-c1c(OC)cccc1OC` [Example 74, 6-butyl-3-{5-[2-(3,4-difluorophenyl)ethyl]-1,3,4-oxadiazol-2-yl}-5-(2,6-dimethoxyphenyl) pyridine-2,4-diol], the EC50 is 0.01 to 10 nM.

Regarding `CCCCc1nc(O)c(-c2nnc(CCc3ccc(C(F)(F)F)cc3)o2)c(O)c1-c1c(OC)cccc1OC` [Example 75, 6-butyl-5-(2,6-dimethoxyphenyl)-3-(5-{2-[4-(trifluoromethyl)phenyl]ethyl}-1,3,4-oxadiazol-2-yl)pyridine-2,4-diol], the concentration giving a half-maximal response (EC50) was in the range of 10 to 100 nM.

With `CCCCc1nc(O)c(-c2nnc(COc3ccc(F)c(F)c3)o2)c(O)c1-c1c(OC)cccc1OC` [Example 76, 6-butyl-3-[5-(3,4-difluorophenoxy-methyl)-1,3,4-oxadiazol-2-yl]-5-(2,6-dimethoxyphenyl) pyridine-2,4-diol], the half-maximal effective concentration (EC50) was 10 to 100 nM.

As to `CCCCc1nc(O)c(-c2nnc(CCc3nc(-c4ccccc4)no3)o2)c(O)c1-c1c(OC)cccc1OC` [Example 77, 6-butyl-5-(2,6-dimethoxyphenyl)-3-{5-[2-(3-phenyl-1,2,4-oxadiazol-5-yl)ethyl]-1,3,4-oxadiazol-2-yl}pyridine-2,4-diol], the concentration giving a half-maximal response (EC50) is 10 to 100 nM.

For `CCCCc1nc(O)c(-c2nnc(Cc3cnn(-c4ccccc4)c3)o2)c(O)c1-c1c(OC)cccc1OC` [Example 78, 6-butyl-5-(2,6-dimethoxyphenyl)-3-{5-[(1-phenyl-1H-pyrazol-4-yl)methyl]-1,3,4-oxadiazol-2-yl}pyridine-2,4-diol], the EC50 fell in the range of 10 to 100 nM.

In the case of `CCCCc1nc(O)c(-c2nnc(Cc3csc(C)n3)o2)c(O)c1-c1c(OC)cccc1OC` [Example 79, 6-butyl-5-(2,6-dimethoxyphenyl)-3-{5-[(2-methyl-1,3-thiazol-4-yl)methyl]-1,3,4-oxadiazol-2-yl}pyridine-2,4-diol], the EC50 was in the range of 0.01 to 10 nM.

As to `CCCCc1nc(O)c(-c2nnc(Cc3ccc(C(F)(F)F)cc3)o2)c(O)c1-c1c(OC)cccc1OC` [Example 80, 6-butyl-5-(2,6-dimethoxyphenyl)-3-(5-{[4-(trifluoromethyl)phenyl]methyl}-1,3,4-oxadiazol-2-yl)pyridine-2,4-diol], the EC50 lay within 0.01 to 10 nM.

On to `CCCCc1nc(O)c(-c2nnc(CCc3ncccn3)o2)c(O)c1-c1c(OC)cccc1OC` [Example 81, 6-butyl-5-(2,6-dimethoxyphenyl)-3-{5-[2-(pyrimidin-2-yl)ethyl]-1,3,4-oxadiazol-2-yl}pyridine-2,4-diol], for which the EC50 was 0.01 to 10 nM.

On to `CCCCc1nc(O)c(-c2nnc(CCc3nc4ccccc4s3)o2)c(O)c1-c1c(OC)cccc1OC` [Example 82, 3-{5-[2-(1,3-benzothiazol-2-yl)ethyl]-1,3,4-oxadiazol-2-yl}-6-butyl-5-(2,6-dimethoxyphenyl) pyridine-2,4-diol], for which the half-maximal effective concentration (EC50) was in the range of 0.01 to 10 nM.

In the case of `CCCCc1nc(O)c(-c2nnc(CCc3nc(-c4ccccn4)no3)o2)c(O)c1-c1c(OC)cccc1OC` [Example 83, 6-butyl-5-(2,6-dimethoxyphenyl)-3-(5-{2-[3-(pyridin-2-yl)-1,2,4-oxadiazol-5-yl]ethyl}-1,3,4-oxadiazol-2-yl)pyridine-2,4-diol], the EC50 lay within 0.01 to 10 nM.

Consider `CCCCc1nc(O)c(-c2nnc(Cc3nc(-c4ccccc4)sc3C)o2)c(O)c1-c1c(OC)cccc1OC` [Example 84, 6-butyl-5-(2,6-dimethoxyphenyl)-3-{5-[(5-methyl-2-phenyl-1,3-thiazol-4-yl)methyl]-1,3,4-oxadiazol-2-yl}pyridine-2,4-diol], for which the half-maximal effective concentration (EC50) was 0.01 to 10 nM.

Consider `CCCCc1nc(O)c(-c2nnc(CCc3ccc(Cl)c(Cl)c3)o2)c(O)c1-c1c(OC)cccc1OC` [Example 85, 6-butyl-3-{5-[2-(3,4-dichlorophenyl)ethyl]-1,3,4-oxadiazol-2-yl}-5-(2,6-dimethoxyphenyl) pyridine-2,4-diol], for which the concentration giving a half-maximal response (EC50) was 10 to 100 nM.

With `CCCCc1nc(O)c(-c2nnc(Cc3noc4ccccc34)o2)c(O)c1-c1c(Cl)cccc1Cl` [Example 86, 3-[5-(1,2-benzoxazol-3-ylmethyl)-1,3,4-oxadiazol-2-yl]-6-butyl-5-(2,6-dichlorophenyl) pyridine-2,4-diol], the EC50 was 0.01 to 10 nM.

Take `CCCCc1nc(O)c(-c2nnc(Cc3ccc(Cl)cc3)o2)c(O)c1-c1c(Cl)cccc1Cl` [Example 87, 6-butyl-3-{5-[(4-chlorophenyl)methyl]-1,3,4-oxadiazol-2-yl}-5-(2,6-dichlorophenyl) pyridine-2,4-diol]: the EC50 is 10 to 100 nM.

Take `CCCCc1nc(O)c(-c2nnc(C(c3ccc(F)cc3)N(C)C)o2)c(O)c1-c1c(OC)cccc1OC` (stereo not shown) [Example 88, 6-butyl-5-(2,6-dimethoxyphenyl)-3-{5-[(dimethylamino) (4-fluorophenyl)methyl]-1,3,4-oxadiazol-2-yl}pyridine-2,4-diol]: the half-maximal effective concentration (EC50) fell in the range of 0.01 to 10 nM.

Consider `CCOCc1nc(O)c(-c2nnc(Cc3noc4ccccc34)o2)c(O)c1-c1c(OC)cccc1OC` [Example 89, 3-[5-(1,2-benzoxazol-3-ylmethyl)-1,3,4-oxadiazol-2-yl]-5-(2,6-dimethoxyphenyl)-6-(ethoxymethyl) pyridine-2,4-diol], for which the EC50 lay within 0.01 to 10 nM.

In the case of `CCOCc1nc(O)c(-c2nnc(Cc3ccc(Cl)cc3)o2)c(O)c1-c1c(OC)cccc1OC` [Example 90, 3-{5-[(4-chlorophenyl)methyl]-1,3,4-oxadiazol-2-yl}-5-(2,6-dimethoxyphenyl)-6-(ethoxymethyl) pyridine-2,4-diol], the concentration giving a half-maximal response (EC50) lay in the range of 0.01 to 10 nM.

With `CCCCc1nc(O)c(-c2nnc(Cc3nc(-c4ccccc4)oc3C)o2)c(O)c1-c1c(OC)cccc1OC` [Example 91, 6-butyl-5-(2,6-dimethoxyphenyl)-3-{5-[(5-methyl-2-phenyl-1,3-oxazol-4-yl)methyl]-1,3,4-oxadiazol-2-yl}pyridine-2,4-diol], the concentration giving a half-maximal response (EC50) lay in the range of 0.01 to 10 nM.

`COc1cccc(OC)c1-c1c(C2CC2)nc(O)c(-c2nnc(Cc3noc4ccccc34)o2)c1O` [Example 92, 3-[5-(1,2-benzoxazol-3-ylmethyl)-1,3,4-oxadiazol-2-yl]-6-cyclopropyl-5-(2,6-dimethoxyphenyl) pyridine-2,4-diol]: the EC50 fell in the range of 10 to 100 nM.

On to `COc1cccc(OC)c1-c1c(C2CC2)[nH]c(=O)c(-c2nnc(Cc3ccc(Cl)cc3)o2)c1O` [Example 93, 3-{5-[(4-chlorophenyl)methyl]-1,3,4-oxadiazol-2-yl}-6-cyclopropyl-5-(2,6-dimethoxyphenyl) pyridine-2,4-diol], for which the concentration giving a half-maximal response (EC50) was 10 to 100 nM.

For the origin of these results see patent US10336739B2, “4-hydroxy-3-(heteroaryl)pyridine-2-one APJ agonists” (BRISTOL-MYERS SQUIBB COMPANY, priority 2015, dated 2019).
